One block for each molecule: values may come before it. Positions of bridges follow the written chain, without caps; N, C: chain ends. Residues, ends and D or L forms follow the SMILES beside them.
Columns and labels:
male Wistar rats = test: Systemic infusions in anaesthetized rat (haemodynamics, echocardiography); assay type: in vivo
Method: Blood pressure (BP) was monitored continuously via an intra-arterial line and echocardiography was used after each bolus to determine changes in heart […], stroke volume, cardiac output (from peak velocity and velocity time interval) and respiratory rate. Rectal temperature was monitored throughout. BP was analyzed using absolute change in mean BP from the baseline taken just before the bolus and area under the curve analysis.

human hand vein = test: Aellig hand vein technique study in human volunteers; assay type: in vivo
Source text: All volunteers (n=12 forearm plethysmography, n=10 hand vein studies) gave written informed consent, and studies adhered to the principles of the Declaration of Helsinki and were approved by the National Research Ethics Service Committee East of England–Cambridge Central (REC 11/EE/0305).

human apelin receptor [1] = target: T1, human apelin receptor (Homo sapiens, UniProt P35414); test: Competition binding in homogenate of human left ventricle; conditions: competition for 0.1 nmol/L [Glp65,Nle75,Tyr77][125I]apelin-13; human heart (left ventricle homogenate); n=3
T1 sequence (P35414 1-380): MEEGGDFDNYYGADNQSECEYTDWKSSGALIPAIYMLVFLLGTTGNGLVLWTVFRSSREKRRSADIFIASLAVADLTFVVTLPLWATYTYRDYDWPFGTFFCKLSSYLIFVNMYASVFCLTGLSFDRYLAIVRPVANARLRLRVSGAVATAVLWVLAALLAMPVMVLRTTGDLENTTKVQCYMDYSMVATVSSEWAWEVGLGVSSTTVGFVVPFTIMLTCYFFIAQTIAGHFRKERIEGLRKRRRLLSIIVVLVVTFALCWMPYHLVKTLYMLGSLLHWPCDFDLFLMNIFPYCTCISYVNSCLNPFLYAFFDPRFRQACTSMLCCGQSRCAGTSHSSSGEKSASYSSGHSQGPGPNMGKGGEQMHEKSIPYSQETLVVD

[2] = In vivo plasma half-life of apelin peptides; conditions: rat, iv
Source text: Rats (230–260 g), anaesthetized with 2% isoflurane, were given a single intravenous bolus (600 nmol) of apelin or MM07 (both n=3).

human apelin receptor [3] = target: T1, human apelin receptor; test: Competition binding in CHO-K1-APJ cells; conditions: competition for [Glp65,Nle75,Tyr77][125I]apelin-13 binding; human apelin receptors in CHO-K1 cells
Method: Initial assays were performed in cells expressing the human apelin receptor (CHO-K1-APJ cells; Cerep, Celle L’Evescault, France). […] Data were analyzed (KELL package; Biosoft, UK) to obtain the dissociation constant KD (concentration of ligand occupying 50% of receptors).

Compound: CSCC[C@H](NC(=O)[C@@H]1CCCN1C(=O)CNC(=O)[C@H](CCCCN)NC(=O)[C@H](Cc1cnc[nH]1)NC(=O)[C@H](CO)NC(=O)[C@H](CC(C)C)NC(=O)[C@H](CCCNC(=N)N)NC(=O)[C@@H]1CCCN1C(=O)[C@H](CCCNC(=N)N)NC(=O)[C@@H]1CCC(=O)N1)C(=O)N1CCC[C@H]1C(=O)N[C@@H](Cc1ccccc1)C(=O)O [[Pyr^1]apelin-13, reference compound]
- respiratory rate (male Wistar rats; incremental bolus doses 1-300 nmol): Neither peptide caused a significant change
- adverse events in hand vein study (human hand vein; human volunteers): no adverse events observed

Compound: CC(=O)NC(C(=O)O)C(C)(C)SN=O (racemic) [SNAP, S-Nitroso-N-acetyl-D,L-penicillamine]
- BP response to SNAP (male Wistar rats; given after peptide doses, both peptide-treated groups): profound fall in BP

- Kd (human apelin receptor [1]): 172 nM
- half-life [2]: 17.4 ± 0.4 min
- Kd (human apelin receptor [3]): 300 nM
Compound: CSCC[C@H](NC(=O)[C@@H]1CCCN1C(=O)CNC(=O)[C@H](CCCCN)NC(=O)[C@H](Cc1cnc[nH]1)NC(=O)[C@@H]1CSSC[C@H](N)C(=O)N[C@@H](CCCNC(=N)N)C(=O)N2CCC[C@H]2C(=O)N[C@@H](CCCNC(=N)N)C(=O)N[C@@H](CC(C)C)C(=O)N1)C(=O)N1CCC[C@H]1C(=O)N[C@@H](Cc1ccccc1)C(=O)O [MM07] (H-CRPRLCHKGPMPF-OH; disulfide 1-6)
- adverse events in hand vein study (human hand vein; human, in vivo): no adverse events observed
